Assay results taken from US20210355107A1, “MULTI-SUBSTITUTED PYRIDONE DERIVATIVES AND MEDICAL USE THEREOF” (Beijing Yuezhikangtai Biomedicines Co., Ltd., priority 2018, published 2021).

Assays:
kinase c-MET = biological target: T1, kinase c-MET (Homo sapiens, UniProt P08581); experiment: Mobility shift assay, inhibitory activity against kinase c-MET; assay type: biochemical; settings: ATP at Km (35 μM), average of two independent experiments
T1 construct: purchased Carna 08-151

[1] = tested on: human non-small cell lung cancer tumor cell strain EBC-1; experiment: In vivo anti-tumor activity in model mice with ectopically grafted EBC-1 tumor cells; settings: EBC-1 subcutaneous tumors in BALB/c-nude mice; 30 mg/kg intragastric once daily for 28 days; FIG. 1
Procedure: (§1) Test Example 5: In Vivo Anti-Tumor Activity of Compounds disclosed herein in Model Mice with Ectopically Grafted Tumor Cells
(§2) 3×10^6 cells of human non-small cell lung cancer tumor cell strain EBC-1 (ATCC) were inoculated subcutaneously into BALB/c-nude model mice (Beijing AniKeeper Biotech, 10 female mice). When the subcutaneous tumors in mice each grew to 175.5 mm^3, the mice were administered intragastrically with test samples.
The mice were divided into a negative control group and an example compound group (compound of Example 3) (30 mg/kg) with 5 mice per group. The mice in the negative control group were administered with 10% solutol HS-15, which was prepared by adding 10 mL of solutol HS-15 to 90 mL of ddH2O and then mixing well by vortexing. […]
After the start of the administration, the body weight and tumor size of each mice were measured twice a week. […]
The anti-tumor efficacy was evaluated based on the growth curve of the tumor (i.e., tumor volume per measurement versus its treatment days) and relative tumor volume during treatment. The relative tumor inhibition (TGI) was calculated according to the following formula: […]
Relative tumor volume RTV was calculated as follows: RTV=[…], where V0 is the tumor volume of the animal at the time of grouping, and Vt is the tumor volume of the animal after treatment.

[2] = Body weight of EBC-1 tumor-bearing mice during treatment; assay type: in vivo; settings: EBC-1 BALB/c-nude mice; 30 mg/kg intragastric once daily for 28 days; FIG. 2
Procedure: as §1, §2
The mice were divided into a negative control group and an example compound group (compound of Example 3) (30 mg/kg) with 5 mice per group. The mice in the negative control group were administered with 10% solutol HS-15, which was prepared by adding 10 mL of solutol HS-15 to 90 mL of ddH2O and then mixing well by vortexing. The mice in the example compound group were administered with a compound solution at a concentration of […] which was prepared by dissolving the compound of Example 3 in 10% solutol HS-15. The mice in both the solvent control group and the example compound group were subjected to intragastric administration once daily for 28 days at a dosage of 10 μL per gram of body weight.
After the start of the administration, the body weight and tumor size of each mice were measured twice a week. The calculation formula for tumor size is as follows: […]

T1 sequence (P08581 956-1390 limits assumed): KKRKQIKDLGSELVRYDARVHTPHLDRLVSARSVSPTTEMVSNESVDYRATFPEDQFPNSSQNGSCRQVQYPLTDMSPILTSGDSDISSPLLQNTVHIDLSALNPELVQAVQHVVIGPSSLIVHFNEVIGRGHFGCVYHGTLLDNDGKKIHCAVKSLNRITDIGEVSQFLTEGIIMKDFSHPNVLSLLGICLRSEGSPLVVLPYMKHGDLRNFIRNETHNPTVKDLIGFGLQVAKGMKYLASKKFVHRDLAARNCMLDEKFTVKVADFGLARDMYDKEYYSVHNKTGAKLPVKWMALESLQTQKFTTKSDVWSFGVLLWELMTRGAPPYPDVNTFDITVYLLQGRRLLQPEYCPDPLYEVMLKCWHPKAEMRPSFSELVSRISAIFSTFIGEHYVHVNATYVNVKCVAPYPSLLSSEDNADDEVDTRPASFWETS

SMILES | IC50 (kinase c-MET) [nM] | tumor growth inhibition (TGI) [1] | body weight change of tumor-bearing mice [2]
CC(C)n1cc(C(=O)Nc2ccc(-c3cc(-c4cnn(C5CCNCC5)c4)cnc3N)c(F)c2)c(=O)c(-c2ccc(F)cc2)c1C#N [Example 2, N-(4-(2-amino-5-(1-(piperidin-4-yl)-1H-pyrazol-4-yl)pyridin-3-yl)-3-fluorophenyl)-6-cyano-5-(4-fluorophenyl)-1-isopropyl-4-oxo-1,4-dihydropyridine-3-carboxamide] | 14 | – | –
CCn1cc(-c2cnc(N)c(-c3ccc(NC(=O)c4cn(C(C)C)c(C#N)c(-c5ccc(F)cc5)c4=O)cc3F)c2)cn1 [Example 3, N-(4-(2-amino-5-(1-ethyl-1H-pyrazol-4-yl)pyridin-3-yl)-3-fluoro-phenyl)-6-cyano-5-(4-fluorophenyl)-1-isopropyl-4-oxo-1,4-dihydropyridine-3-carboxamide] | 30 | up to 108% | does not change significantly

The remaining molecules from weak to strong by IC50 (kinase c-MET), led by results:

IC50 (kinase c-MET) [nM] | SMILES | tumor growth inhibition (TGI) [1] | body weight change of tumor-bearing mice [2]
26 | CC(C)n1cc(C(=O)Nc2cc(F)c(-c3cc(-c4cnn(C)c4)cnc3N)cc2F)c(=O)c(-c2ccc(F)cc2)c1C#N [Example 6, N-(4-(2-amino-5-(1-methyl-1H-pyrazol-4-yl)pyridin-3-yl)-2,5-difluorophenyl)-6-cyano-5-(4-fluorophenyl)-1-isopropyl-4-oxo-1,4-dihydropyridine-3-carboxamide] | – | –
23 | CCn1cc(-c2cnc(N)c(-c3ccc(NC(=O)c4cn(C5CC5)c(C#N)c(-c5ccc(F)cc5)c4=O)cc3F)c2)cn1 [Example 10, N-(4-(2-amino-5-(1-ethyl-1H-pyrazol-4-yl)pyridin-3-yl)-3-fluorophenyl)-6-cyano-5-(4-fluorophenyl)-1-cyclopropyl-4-oxo-1,4-dihydropyridine-3-carboxamide] | – | –
3 | CC(C)n1cc(C(=O)Nc2ccc(-c3cc(-c4cnn(C)c4)cnc3N)c(F)c2)c(=O)c(-c2ccc(F)cc2)c1C#N [Example 4, N-(4-(2-amino-5-(1-methyl-1H-pyrazol-4-yl)pyridin-3-yl)-3-fluorophenyl)-6-cyano-5-(4-fluorophenyl)-1-isopropyl-4-oxo-1,4-dihydropyridine-3-carboxamide] | – | –
